Common to all, as to assay type: cell-based, human
For experiment [1], the system named is Ala4→Val mutant SOD-1 in transformed 293 cells. The experiment in a line: Specificity of MCP activity in SOD-1 turnover, Ala4→Val cell line. To be noted: 20 μM, 24 hours; FIG. 7; relative to untreated samples. The method, then: (§1) Res. Comm. (1988) 153: 1201.), a cell penetrating "calpain" inhibitor (calpain is a cysteine protease); and DK-3 (Enzyme Systems Products, Dublin, Calif. CBZ-Phe-Ala-CHN2) inhibits lysosomal protease activity. […] Cell lines expressing the indicated SOD-1 isoforms were incubated for 24 hours with the following protease inhibitors: Compound 14, 20 μM; Calpeptin, 10 μM; DK-3, 5 μM; Compound 16, 20 μM; or with DMSO as a negative control. After the 24 hours of incubation with the inhibitors, SOD-1 levels were measured by densitometric scanning of immunoblots. […] Each data point is the average of results from three experiments.

In experiment [2] the test system is wild-type SOD-1 in transformed 293 cells. In words: Specificity of MCP activity in SOD-1 turnover, wild-type cell line. Particulars: 20 μM, 24 hours; FIG. 7. The method, then: as §1
The subject of experiment [3] is wild-type and FALS mutant (Ala4→Val, Ile113→Thr) SOD-1 in 293 cells. The experiment in a line: Dose response of SOD-1 isoforms in stably transformed 293 cell lines. The method, then:
Cells were maintained in G418 selection for three weeks at which time drug selection was removed and the G418-resistant colonies of each transformed cell type were pooled for further growth. Compound 14 was utilized in these studies.
Cell lines expressing the indicated SOD-1 isoforms were incubated with various concentrations of compound 14 for 24 hours at which time the SOD-1 levels were measured by densitometric scanning of immunoblots.

Regarding `CC(C)C[C@@H](C=O)NC(=O)[C@H](CCCNC(=N)N[N+](=O)[O-])NC(=O)C(CCCCCCCCC#N)C1CCCC1` (stereo partly drawn) [Compound 14, 10-cyano-2-cyclopentyldecanoyl-N^g-nitro-L-arginyl-L-leucinal], the “Increase in the accumulation of SOD-1 protein (Ala4→Val mutant)” value in experiment [1] is “three-fold”. Moreover, the “Wild-type SOD-1 accumulation” value in experiment [2] is given as “slight increase”. Further, in experiment [3] (24 hours, FIG. 6), the “Concentration giving maximal SOD-1 accumulation” value is given as “approximately 20 μM”. Further, the “Reduction of wild-type and mutant SOD-1 degradation” value in experiment [3] (summary statement) is “reduces wild-type and mutant SOD-1 degradation in a dose-dependent manner”. Besides, the “Accumulation of SOD-1 protein levels” value in experiment [3] (various concentrations, 24 hours, FIG. 6) is recorded as “significant accumulations of SOD-1 protein levels”. Also, in experiment [3] (wild-type SOD-1 cell line, dose response), the “Effect on turnover of the wild-type SOD-1 protein” value is on record as “statistically significant effect”.

(Values after patent US5990083A, “Multicatalytic protease inhibitors” (Cephalon, Inc., priority 1997, dated 1999).)
